According to PubChem BioAssay (NCI):
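Each compound was tested at five concentrations against cells in 96-well plates for 48 hours. TGI: total growth inhibition.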

Columns and labels:
Assay in all cases: NCI anticancer screen, dose series, 48 h
SW-620 colon = tested on: SW-620 colon
HT29 colon = tested on: HT29 colon
OVCAR-8 ovarian = tested on: OVCAR-8 ovarian
UACC-257 melanoma = tested on: UACC-257 melanoma
EKVX NSCLC = tested on: EKVX NSCLC
A549 NSCLC = tested on: A549 NSCLC
MOLT-4 leukemia = tested on: MOLT-4 leukemia
XF 498 CNS = tested on: XF 498 CNS
OVCAR-5 ovarian = tested on: OVCAR-5 ovarian
SN12C renal = tested on: SN12C renal
UACC-62 melanoma = tested on: UACC-62 melanoma
U251 CNS = tested on: U251 CNS
SK-MEL-5 melanoma = tested on: SK-MEL-5 melanoma
SF-295 CNS = tested on: SF-295 CNS
NCI-H522 lung = tested on: NCI-H522 lung
HOP-92 NSCLC = tested on: HOP-92 NSCLC
K-562 leukemia = tested on: K-562 leukemia
SNB-75 CNS = tested on: SNB-75 CNS
HCT-116 colon = tested on: HCT-116 colon
NCI-H23 lung = tested on: NCI-H23 lung

| SMILES | TGI (SW-620 colon) [µM] | TGI (HT29 colon) [µM] | TGI (OVCAR-8 ovarian) [µM] | TGI (UACC-257 melanoma) [µM] | TGI (EKVX NSCLC) [µM] | TGI (A549 NSCLC) [µM] | TGI (MOLT-4 leukemia) [µM] | TGI (XF 498 CNS) [µM] | TGI (OVCAR-5 ovarian) [µM] | TGI (SN12C renal) [µM] | TGI (UACC-62 melanoma) [µM] | TGI (U251 CNS) [µM] | TGI (SK-MEL-5 melanoma) [µM] | TGI (SF-295 CNS) [µM] | TGI (NCI-H522 lung) [µM] | TGI (HOP-92 NSCLC) [µM] | TGI (K-562 leukemia) [µM] | TGI (SNB-75 CNS) [µM] | TGI (HCT-116 colon) [µM] | TGI (NCI-H23 lung) [µM] |
| --- | --- | --- | --- | --- | --- | --- | --- | --- | --- | --- | --- | --- | --- | --- | --- | --- | --- | --- | --- | --- |
| COC1OCC(O)C(NC(=O)N(C)N=O)C1O (configuration not stated) | > 100 | > 100 | > 100 | > 100 | > 100 | > 100 | > 100 | > 100 | > 100 | > 100 | > 100 | > 100 | > 100 | > 100 | > 100 | > 100 | > 100 | > 100 | > 100 | > 100 |
| CN(C)C(=O)Oc1c(Br)cc(Br)cc1C(=O)OCc1ccccc1 | > 100 | 19.2 | > 100 | 60.2 | > 100 | > 100 | 44.3 | 49.2 | > 100 | 52.8 | 39.4 | 56.2 | 17.7 | 55.7 | > 100 | 42.8 | > 90.2 | 97 | 29 | > 72.9 |
| CCCCCCSc1nc(N)nc2nc[nH]c12 | > 100 | > 100 | > 100 | > 100 | > 100 | > 100 | > 100 | > 89.6 | > 100 | > 100 | > 100 | > 100 | > 62.5 | > 100 | 40.9 | 72.1 | > 100 | 71.7 | > 100 | > 100 |
| O=C1CC(/C=C/c2ccco2)=C(O)C1=O | 31.6 | 30.4 | 30 | 33.2 | 37.6 | 62.8 | 60.8 |  | 30.1 | 27.7 | 30.1 | 28.6 | 26.5 | 40.9 | 31.7 | 28.4 | 49 | 32.9 | 30.4 | 27.2 |
| COC1/C=C/C=C(/C)Cc2cc(O)c(Cl)c(c2)N(C)C(=O)CC(OC(=O)C(C)C)C2(C)OC2C(C)C2CC1(O)NC(=O)O2 (configuration not stated) | > 100 | < 0.01 | > 100 | > 100 | > 100 | > 100 | > 100 |  | > 71.2 | > 44.7 | > 100 | > 43.9 | < 0.0116 | > 100 | < 0.01 | > 100 | > 100 | 2.08 | > 100 | < 0.01 |
| CC[C@@]1(O)C[C@H](OC2CC(N(C)C)C(O)C(C)O2)c2c(cc3c(c2O)C(=O)c2c(O)ccc(O)c2C3=O)[C@H]1C(=O)OC (some centres not stated) | 0.662 | 0.559 | 0.643 | 0.317 | 0.526 | 1.36 | 0.192 | 0.463 | 0.836 | 1.47 | 0.252 | 1.23 | 0.461 | 0.389 | 0.501 | 1.35 | 0.472 | 0.354 | 0.829 | 0.599 |
| O=c1ccc2ccc(CBr)cc2o1 | 3.2 | 6.41 | 4.06 | 24 | 5.94 | 30.1 | 5.98 |  | 3.29 | 7.22 | 23.1 | 3.36 | 8.96 | 28.7 | 2.55 | 3.13 | 5.2 | > 100 | 3.74 | 8.91 |
| CN(C)CCNC(=O)c1cccc2ccc(-c3ccc(Br)cc3)nc12 | 5.9 | 7.24 | 4.76 | 10.7 | 9.08 | 4.29 | 1.48 | 6.94 | 10.2 | 13.5 | 3.6 | 12.2 | 2.92 | 14.8 | 4.21 | 8.43 | 9.2 | 10.7 | 5.13 | 13.6 |
| CC(=O)C(=O)NC1/C=C(C)\C=C/C(O)C/C=C(C)\C=C/C(O)CC2OC(=O)C1(C)C(=O)C2C (configuration not stated) | > 100 | > 100 | > 100 | > 100 | > 100 | > 100 | > 100 |  | > 100 | > 100 | > 100 | > 100 | > 100 | > 100 | > 100 | > 100 | > 100 | > 100 | > 100 | > 100 |
| C/C(=N\Nc1nc2cc(Cl)ccc2s1)c1ccccn1 | 23.7 |  | > 40.4 | > 100 | > 35.5 | > 43.7 | > 100 |  | > 100 | 15.2 | 10.1 | 6.57 | 13.6 |  | > 41.1 | 15.4 | > 100 | 31.3 | > 100 | 25.9 |
| CC1(C)OC[C@H](C(=N)OCc2ccccc2)O1 | > 100 | > 100 | > 100 | > 100 | > 100 | > 100 | > 100 | > 100 | > 100 | > 100 | > 100 | > 100 | > 100 | > 100 | > 100 | > 100 | > 100 | > 100 | > 100 | > 100 |
| CCN1c2ccccc2NC(=S)c2c1n[nH]c2-c1ccccc1 | 84.7 | > 100 | > 100 | > 100 | > 100 | 84.5 | 38.2 |  | > 100 | > 100 | > 100 | 50.1 | 43.2 | 59.3 | 52.8 | > 100 | 39.8 | > 100 | > 100 | > 100 |
